Reference: patent US8853258B2, “C-linked hydroxamic acid derivatives useful as antibacterial agents” (Pfizer Inc., priority 2009, dated 2014)
pIC50: −log10 of the molar value. Values after ≈ are worked out from the molar mass of the structure shown. Where two headings read alike, the source gives them in different places.

Legend:
[1] = test system: Escherichia coli EC-1: VOGEL, mouse virulent; assay: MIC determination (CLSI), EC-1; assay type: cell-based; details: for MIC: Escherichia coli
Method in brief: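 E. coli Vogel, a mouse-virulent strain (EC-1), was tested. MICs were set by dilution susceptibility testing per CLSI standards M7-A7/M100-S18.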

[2] = test system: Acinetobacter baumanii/haemolyticus: Multidrug-resistant clinical isolate (AB-3167); assay: MIC determination (CLSI), AB-3167; assay type: cell-based; details: for MIC: Acinetobacter baumannii
Method in brief: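 Multidrug-resistant clinical isolate AB-3167 (A. baumannii/haemolyticus) tested for minimum inhibitory concentration following CLSI dilution susceptibility standards M7-A7 and M100-S18.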

[3] = test system: Pseudomonas aeruginosa UI-18: Wild-type (PA-7); assay: MIC determination (CLSI), PA-7; assay type: cell-based; details: for MIC: Pseudomonas aeruginosa
Method in brief: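 MIC by dilution method per CLSI M7-A7 and M100-S18 guidelines. Strain: wild-type Pseudomonas aeruginosa UI-18.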

[4] = molecular target: Pseudomonas aeruginosa LpxC enzyme (Pseudomonas aeruginosa (strain ATCC 15692 / DSM 22644 / CIP 104116 / JCM 14847 / LMG 12228 / 1C / PRS 101 / PAO1), UniProt P47205); assay: IC50 Assay, LpxC Enzyme from P. aeruginosa (PA LpxC Enzyme IC50); assay type: biochemical
Method in brief: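 Reaction run 1 h then stopped with 1N HCl. Conversion measured by RapidFire high-throughput mass spectrometry. IC50 derived from percent conversion relative to a no-enzyme control.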

[5] = test system: Klebsiella pneumoniae: Ciprofloxacin-resistant isolate, ESBL, clinical isolate (KP-3700); assay: MIC determination (CLSI), KP-3700; assay type: cell-based
Method in brief: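 MIC measured by broth dilution according to CLSI M7-A7 and M100-S18 standards. Test organism was a ciprofloxacin-resistant, ESBL-expressing clinical isolate.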

[6] = Escherichia coli EC-1 VOGEL, mouse virulent
[7] = Acinetobacter baumanii/haemolyticus multidrug-resistant clinical isolate AB-3167
[8] = Pseudomonas aeruginosa UI-18 wild-type PA-7
[9] = P. aeruginosa LpxC enzyme, read-out: PA LpxC enzyeme IC50
[10] = Acinetobacter baumanii/haemolyticus AB-3167
[11] = Pseudomonas aeruginosa UI-18 (PA-7)
[12] = Table 3, read-out: PA LpxC enzyeme IC^50

Row | SMILES | EC-1 MIC [1, 6] | AB-3167 MIC [2, 7] | PA-7 MIC [3, 8] [µg/mL] | pIC50 [4, 9] | KP-3700 MIC [5] | also measured
1 | CC(CCc1ccc(-c2ccc(OCCCCO)cc2)cc1)(C(=O)NO)S(C)(=O)=O (centres unmarked) [Example 136] | 0.125 µg/mL | ≧64 mg/L | 1 | 9.69 | 1 µg/mL | –
2 | CC(=O)c1ccc(-c2ccc(CCC(C)(C(=O)NO)S(C)(=O)=O)cn2)cc1 (centres unmarked) [Example 133] | 16 µg/mL | ≧64 mg/L | 16 | 9.01 | ≧64 mg/L | –
3 | CC(CCc1ccc(-c2ccc3c(c2)C(=O)NC3)c(F)c1)(C(=O)NO)S(C)(=O)=O (centres unmarked) [Example 203] | – | – | – | 9.18 | 32 µg/mL | EC-1 MIC ([1]; Escherichia coli EC-1): 8 µg/mL; AB-3167 MIC [2, 10]: ≧64 mg/L; PA-7 MIC [3, 11]: 4 µg/mL
4 | C[C@@](CCc1ccc(-c2cccnc2)cc1)(C(=O)NO)S(C)(=O)=O [Example 198] | ≧64 mg/L | ≧64 mg/L | 8 | 8.42 | ≧64 mg/L | –
5 | CC(=O)Nc1ccc(-c2ccc(CC[C@](C)(C(=O)NO)S(C)(=O)=O)cc2)cc1 [Example 205] | – | – | – | 8.76 | 32 µg/mL | EC-1 MIC ([1]; Escherichia coli EC-1): 16 µg/mL; AB-3167 MIC [2, 10]: ≧64 mg/L; PA-7 MIC [3, 11]: 4 µg/mL
6 | CC(CCc1ccc(-c2ccc3c(c2)C(=O)NC3)cc1F)(C(=O)NO)S(C)(=O)=O (centres unmarked) [Example 196] | 4 µg/mL | ≧64 mg/L | 4 | 9.20 | 16 µg/mL | –
7 | CC(CCc1ccc(-c2cccc(Cl)c2)cc1)(C(=O)NO)S(C)(=O)=O (centres unmarked) [Example 88] | 1 µg/mL | 4 µg/mL | 1 | 9.44 | 4 µg/mL | –
8 | CC1(O)CCN(C(=O)COc2ccc(-c3ccc(CC[C@](C)(C(=O)NO)S(C)(=O)=O)cc3)cc2)CC1 [Example 222] | – | – | – | 9.08 | ≧64 mg/L | EC-1 MIC ([1]; Escherichia coli EC-1): 16 µg/mL; AB-3167 MIC [2, 10]: ≧64 mg/L; PA-7 MIC [3, 11]: 32 µg/mL
9 | CC(CCc1ccc(-c2cnc3ccccc3c2)cc1F)(C(=O)NO)S(C)(=O)=O (centres unmarked) [Example 200] | 1 µg/mL | ≧64 mg/L | 4 | 9.33 | 8 µg/mL | –
10 | CCCCCc1noc(COc2ccc(CCC(C)(C(=O)NO)S(C)(=O)=O)cc2)n1 (centres unmarked) [Example 295, N-hydroxy-2-methyl-2-(methylsulfonyl)-4-{4-[(3-pentyl-1,2,4-oxadiazol-5-yl)methoxy]phenyl}butanamide] | – | – | – | – | ≧64 mg/L | MIC ([1]; read-out: EC-1 MIC): 32 µg/mL (≈ 72.8 µM); MIC ([2]; Table 3, read-out: AB-3167 MIC): ≥ 64 µg/mL; MIC ([3]; Table 3, read-out: PA-7 MIC): ≥ 64 µg/mL; pIC50 [4, 12]: 7.90
11 | COc1ccc(-c2ccc(CCC(C)(C(=O)NO)S(C)(=O)=O)cn2)c(F)c1 (centres unmarked) [Example 219] | – | – | – | 8.92 | 16 µg/mL | EC-1 MIC ([1]; Escherichia coli EC-1): 4 µg/mL; AB-3167 MIC [2, 10]: ≧64 mg/L; PA-7 MIC [3, 11]: 8 µg/mL
12 | CC(CCc1ccc(-c2ccc(OCCCO)cc2)cc1)(C(=O)NO)S(C)(=O)=O (centres unmarked) [Example 115] | 0.5 µg/mL | ≧64 mg/L | 2 | 9.41 | 2 µg/mL | –
13 | CC(CCc1ccc(-c2ccc(F)cc2)c(F)c1)(C(=O)NO)S(C)(=O)=O (centres unmarked) [Example 167] | 1 µg/mL | 8 µg/mL | 0.5 | 9.63 | 4 µg/mL | –
14 | C[C@@](CCc1ccc(-c2cnc3cc[nH]c3c2)cc1)(C(=O)NO)S(C)(=O)=O [Example 211] | – | – | – | 7.95 | ≧64 mg/L | EC-1 MIC ([1]; Escherichia coli EC-1): ≧64 mg/L; AB-3167 MIC [2, 10]: ≧64 mg/L; PA-7 MIC [3, 11]: 32 µg/mL
15 | CC(CCc1ccc(-c2ccc(F)c(Cl)c2)cc1)(C(=O)NO)S(C)(=O)=O (centres unmarked) [Example 104] | 0.5 µg/mL | 2 µg/mL | 1 | 9.90 | 2 µg/mL | –
16 | CC(C)Cc1ccc(-c2ccc(CCC(C)(C(=O)NO)S(C)(=O)=O)cc2)cc1 (centres unmarked) [Example 63] | 2 µg/mL | 8 µg/mL | 16 | 9.45 | 4 µg/mL | –

Row | SMILES | EC-1 MIC [1, 6] | AB-3167 MIC [2, 7] | PA-7 MIC [3, 8] [µg/mL] | pIC50 [4, 9] | KP-3700 MIC [5] | also measured
17 | CC(CCc1ccc(-c2ccc(C#N)cc2)cc1F)(C(=O)NO)S(C)(=O)=O (centres unmarked) [Example 168] | 1 µg/mL | ≧64 mg/L | 1 | 9.37 | 2 µg/mL | –
18 | CC(CCc1ccc(-c2ccc(NS(C)(=O)=O)cc2)c(F)c1)(C(=O)NO)S(C)(=O)=O (centres unmarked) [Example 209] | – | – | – | 8.69 | 32 µg/mL | EC-1 MIC ([1]; Escherichia coli EC-1): 8 µg/mL; AB-3167 MIC [2, 10]: ≧64 mg/L; PA-7 MIC [3, 11]: 8 µg/mL
19 | CC(CCc1ccc(OCc2ccc(S(C)(=O)=O)cc2)cc1)(C(=O)NO)S(C)(=O)=O (centres unmarked) [Example 309, N-hydroxy-2-methyl-2-(methylsulfonyl)-4-(4-{[4-(methylsulfonyl)benzyl]oxy}phenyl)butanamide] | – | – | – | – | 16 µg/mL | MIC ([1]; read-out: EC-1 MIC): 8 µg/mL (≈ 17.6 µM); MIC ([2]; Table 3, read-out: AB-3167 MIC): ≥ 64 µg/mL; MIC ([3]; Table 3, read-out: PA-7 MIC): 8 µg/mL (≈ 17.6 µM); pIC50 [4, 12]: 8.92
20 | Cc1cc(CCC(C)(C(=O)NO)S(C)(=O)=O)ccc1-c1ccc(C#N)cc1 (centres unmarked) [Example 162] | 2 µg/mL | 16 µg/mL | 4 | 9.62 | 16 µg/mL | –
21 | C[C@@](CCc1ccc(-c2ccc(C(=O)N3CCC(O)CC3)cc2)cc1)(C(=O)NO)S(C)(=O)=O [Example 192] | ≧64 mg/L | ≧64 mg/L | 16 | 8.47 | ≧64 mg/L | –
22 | CC(CCc1ccc(-c2ccc(C#N)c(Cl)c2)cc1)(C(=O)NO)S(C)(=O)=O (centres unmarked) [Example 126] | 0.5 µg/mL | 8 µg/mL | 0.5 | 9.48 | 2 µg/mL | –
23 | CC(CCc1ccc(-c2cc(F)c(C#N)c(F)c2)cc1)(C(=O)NO)S(C)(=O)=O (centres unmarked) [Example 127] | 1 µg/mL | 32 µg/mL | 2 | 9.82 | 8 µg/mL | –
24 | CC(CCc1ccc(-c2ccc(C(=O)CO)cc2)cc1)(C(=O)NO)S(C)(=O)=O (centres unmarked) [Example 169] | 2 µg/mL | 32 µg/mL | 1 | 9.70 | 4 µg/mL | –
25 | CC(CCc1ccc(C2=CCCCC2)cc1)(C(=O)NO)S(C)(=O)=O (centres unmarked) [Example 224] | – | – | – | 9.36 | 16 µg/mL | EC-1 MIC ([1]; Escherichia coli EC-1): 4 µg/mL; AB-3167 MIC [2, 10]: 4 µg/mL; PA-7 MIC [3, 11]: 2 µg/mL
26 | CC(CCc1ccc(-c2ccc(CO)c(F)c2)cc1)(C(=O)NO)S(C)(=O)=O (centres unmarked) [Example 123] | 16 µg/mL | ≧64 mg/L | 1 | 9.31 | 16 µg/mL | –
27 | COc1ccc(-c2ccc(CCC(C)(C(=O)NO)S(C)(=O)=O)cc2F)cn1 (centres unmarked) [Example 213] | – | – | – | 9.29 | 8 µg/mL | EC-1 MIC ([1]; Escherichia coli EC-1): 2 µg/mL; AB-3167 MIC [2, 10]: ≧64 mg/L; PA-7 MIC [3, 11]: 2 µg/mL
28 | CC(=O)c1ccc(-c2ccc(CC[C@](C)(C(=O)NO)S(C)(=O)=O)cc2)cc1 [Example 182] | 0.5 µg/mL | 16 µg/mL | 0.5 | 10.17 | 1 µg/mL | –
29 | CC(CCc1ccc(OCc2cc(F)ccc2C(F)(F)F)cc1)(C(=O)NO)S(C)(=O)=O (centres unmarked) [Example 280, 4-(4-{[5-fluoro-2-(trifluoromethyl)benzyl]oxy}phenyl)-N-hydroxy-2-methyl-2-(methylsulfonyl)butanamide] | – | – | – | – | 32 µg/mL | MIC ([1]; read-out: EC-1 MIC): 8 µg/mL (≈ 17.3 µM); MIC ([2]; Table 3, read-out: AB-3167 MIC): 32 µg/mL (≈ 69 µM); MIC ([3]; Table 3, read-out: PA-7 MIC): 32 µg/mL (≈ 69 µM); pIC50 [4, 12]: 7.86
30 | C[C@@](CCc1ccc(-c2ccc3c(c2)OCO3)cc1)(C(=O)NO)S(C)(=O)=O [Example 215] | – | – | – | 10.07 | 2 µg/mL | EC-1 MIC ([1]; Escherichia coli EC-1): 0.5 µg/mL; AB-3167 MIC [2, 10]: 16 µg/mL; PA-7 MIC [3, 11]: 0.5 µg/mL
31 | CC(CCc1ccc(C2=CCCCCC2)cc1)(C(=O)NO)S(C)(=O)=O (centres unmarked) [Example 13, 4-(4-Cyclohept-1-en-1-ylphenyl)-N-hydroxy-2-methyl-2-(methylsulfonyl)butanamide] | – | – | – | – | 4 µg/mL | MIC ([1]; read-out: EC-1: (MIC)): 2 µg/mL (≈ 5.47 µM); MIC ([2]; Table 1, MIC, read-out: AB-3167 (MIC)): 0.5 µg/mL (≈ 1.37 µM); MIC ([3]; Table 1, MIC, read-out: PA-7 (MIC)): 1 µg/mL (≈ 2.74 µM); pIC50 ([4]; Table 1, read-out: PA LpxC enzyeme IC50): 9.54
